Measurements: US11096961B2, “Pharmaceutical composition for suppressing spinal cord ischemic disorder” (SUMITOMO SEIKA CHEMICALS CO., LTD., priority 2019, dated 2021)

Legend:
[1] = tested on: mouse transient spinal cord ischemia model; test: Measurement of spinal cord blood flow (SCBF) after release of blood flow interception; format: in vivo; details: inhalation of 5% carbon dioxide gas from cannulation until end of model creation; SCBF before interception = 100%; measured for 480 seconds after release of interception; compared with 100% oxygen control; FIG. 1
Text: (§1) An 8 to 12-week-old male mouse was used for creating a mouse transient spinal cord ischemia model. The mouse was subjected to endotracheal intubation under anesthesia by the inhalation of isoflurane and cannulation for measuring blood pressure in the left femoral artery. The cervix and a part of the sternum were incised, and the left common carotid artery, the aortic arch, and the left subclavian artery were exposed. The blood flow was intercepted at the aortic arch and the left subclavian artery base using two vascular clips. The vascular clips were removed 4 minutes and 30 seconds after the blood flow interception, and the blood flow interception was released. […]
(§2) The inhalation of 5% carbon dioxide gas was started from the cannulation in the process of creating the mouse transient spine ischemia model, and the inhalation was continued until the end of the model creation. […] The spinal cord blood flow (SCBF) before the blood flow interception was defined as 100%, and the spinal cord blood flow was measured for 480 seconds after the blood flow interception was released. A known method (Basso et al., J Nurotrauma, 23(5): 635-59, 2006) was partially modified, and the motor functions were continuously evaluated by the Basso Mouse Scale (BMS) 24, 48 and 72 hours after spinal cord ischemia. […]

[2] = tested on: mouse transient spinal cord ischemia model; test: Evaluation of motor function by Basso Mouse Scale (BMS) after spinal cord ischemia; format: in vivo; details: inhalation of 5% carbon dioxide gas, compared with 100% oxygen controls, FIGS. 2A-2B
Text: as §1, §2

O=C=O [5% carbon dioxide gas, carbon dioxide]
spinal cord blood flow (SCBF) in the ischemic state [1]: improved more rapidly
decreases in the motor functions (Basso Mouse Scale) ([2]; BMS 24, 48 and 72 hours after spinal cord ischemia): hardly observed
onset of late-onset paraplegia ([2]; BMS=0 to 5 is paraplegia or death, 24, 48 and 72 hours after ischemia): suppressed remarkably
